The record followed here is patent publication US11459324B2, “O-glycoprotein-2-acetamido-2-deoxy-3-D-glycopyranosidase inhibitors” (BIOGEN MA INC., priority 2018, dated 2022).

Molecules are shown by their SMILES. Bounds are passed on as bounds.

As a reminder, the IC50 is the concentration that gives 50% inhibition.

This assay addresses T1, Recombinant full length human OGA enzyme (Homo sapiens, UniProt O60502).
T1 construct: Recombinant full length human OGA enzyme was purchased from Origene; purchased Origene
T1 sequence (O60502 1-916): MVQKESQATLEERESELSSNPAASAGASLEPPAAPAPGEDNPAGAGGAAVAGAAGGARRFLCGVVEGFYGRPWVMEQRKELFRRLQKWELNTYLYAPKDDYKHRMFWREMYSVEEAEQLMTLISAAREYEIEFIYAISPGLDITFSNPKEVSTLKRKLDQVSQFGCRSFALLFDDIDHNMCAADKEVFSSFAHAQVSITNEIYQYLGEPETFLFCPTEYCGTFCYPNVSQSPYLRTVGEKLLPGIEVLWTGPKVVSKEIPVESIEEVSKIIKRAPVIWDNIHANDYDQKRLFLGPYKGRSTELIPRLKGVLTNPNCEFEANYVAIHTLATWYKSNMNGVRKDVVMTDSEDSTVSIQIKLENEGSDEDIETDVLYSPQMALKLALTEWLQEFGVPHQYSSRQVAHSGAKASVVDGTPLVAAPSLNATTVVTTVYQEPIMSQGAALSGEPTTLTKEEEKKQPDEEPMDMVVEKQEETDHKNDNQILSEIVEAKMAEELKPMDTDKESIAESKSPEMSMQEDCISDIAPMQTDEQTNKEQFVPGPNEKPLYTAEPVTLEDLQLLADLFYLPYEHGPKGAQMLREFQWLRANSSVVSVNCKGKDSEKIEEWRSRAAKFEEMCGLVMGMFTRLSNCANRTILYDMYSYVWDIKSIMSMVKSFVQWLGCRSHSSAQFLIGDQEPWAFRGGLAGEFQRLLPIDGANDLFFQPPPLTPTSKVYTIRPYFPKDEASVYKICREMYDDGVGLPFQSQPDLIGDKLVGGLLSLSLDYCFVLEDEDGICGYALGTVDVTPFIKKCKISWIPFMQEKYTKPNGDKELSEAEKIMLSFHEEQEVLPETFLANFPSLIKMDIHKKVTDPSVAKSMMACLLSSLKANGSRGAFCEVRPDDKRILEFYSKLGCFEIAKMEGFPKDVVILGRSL
The assay can be described thus: OGA Enzyme Inhibition Biochemical Assay. Conditions: 1 nM OGA, 100 μM 4-MUGlcNAc (Km), pH 6.4, 90 minutes at room temperature, 10-point dose-response from 20 μM. An outline of the steps: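 Full-length human OGA at 1 nM with 100 μM 4-MUGlcNAc (Km) in McIlvaine buffer pH 6.4 plus 0.01% BSA, 90 min at room temperature, then glycine pH 10 quench. Fluorescence read at Ex 355/Em 460 nm. 10-point, 4-fold dose-response from 20 μM, 4-parameter variable-slope fit.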
`CC(=O)N(C)c1nc(F)c(CN2CC[C@H](Cc3ncc(F)cn3)C2)s1` [Example 3-37, (R)-N-(4-fluoro-5-((3-((5-fluoropyrimidin-2-yl)methyl)pyrrolidin-1-yl)methyl)thiazol-2-yl)-N-methylacetamide]: the IC50 turned out to be 0.079 µM. To `CC(=O)Nc1nc(Cl)c(CN2CC[C@H](Cc3cc(C)nc(C)c3)C2)s1` [Example 3-38, (S)—N-(4-chloro-5-((3-((2,6-dimethylpyridin-4-yl)methyl)pyrrolidin-1-yl)methyl)thiazol-2-yl)acetamide] belongs 0.15 µM; to `CC(=O)Nc1nc(F)c(CN2C[C@H](Cc3ncc(F)cn3)C[C@H]2C)s1` [Example 3-39, N-(4-fluoro-5-(((2R,4S)-4-((5-fluoropyrimidin-2-yl)methyl)-2-methylpyrrolidin-1-yl)methyl)thiazol-2-yl)acetamide], 0.31 µM; to `CC(=O)Nc1nc(F)c(CN2C[C@H](Cc3ncc(F)cn3)C[C@@H]2C)s1` [Example 3-40, N-(4-fluoro-5-(((2S,4S)-4-((5-fluoropyrimidin-2-yl)methyl)-2-methylpyrrolidin-1-yl)methyl)thiazol-2-yl)acetamide], 0.15 µM. As for `CC(=O)Nc1nc(F)c(CN2C[C@@H](Cc3ncc(F)cn3)C[C@@H]2C)s1` [Example 3-41, N-(4-fluoro-5-(((2S,4R)-4-((5-fluoropyrimidin-2-yl)methyl)-2-methylpyrrolidin-1-yl)methyl)thiazol-2-yl)acetamide], the IC50 was under 0.001 µM. The same measure for `CC(=O)Nc1nc(F)c(CN2C[C@@H](Cc3ncc(F)cn3)C[C@H]2C)s1` [Example 3-42, N-(4-fluoro-5-(((2R,4R)-4-((5-fluoropyrimidin-2-yl)methyl)-2-methylpyrrolidin-1-yl)methyl)thiazol-2-yl)acetamide]: under 0.001 µM; for `COc1cc(C[C@@H]2C[C@@H](C)N(Cc3sc(NC(C)=O)nc3F)C2)ncn1` [Example 3-43, N-(4-fluoro-5-(((2R,4S)-4-((6-methoxypyrimidin-4-yl)methyl)-2-methylpyrrolidin-1-yl)methyl)thiazol-2-yl)acetamide]: 0.087 µM; for `COc1cc(C[C@@H]2C[C@H](C)N(Cc3sc(NC(C)=O)nc3F)C2)ncn1` [Example 3-44, N-(4-fluoro-5-(((2S,4S)-4-((6-methoxypyrimidin-4-yl)methyl)-2-methylpyrrolidin-1-yl)methyl)thiazol-2-yl)acetamide]: under 0.001 µM. The same measure for `COc1cc(C[C@H]2C[C@@H](C)N(Cc3sc(NC(C)=O)nc3F)C2)ncn1` [Example 3-45, N-(4-fluoro-5-(((2R,4R)-4-((6-methoxypyrimidin-4-yl)methyl)-2-methylpyrrolidin-1-yl)methyl)thiazol-2-yl)acetamide]: 0.0044 µM; for `COc1cc(C[C@H]2C[C@H](C)N(Cc3sc(NC(C)=O)nc3F)C2)ncn1` [Example 3-46, N-(4-fluoro-5-(((2S,4R)-4-((6-methoxypyrimidin-4-yl)methyl)-2-methylpyrrolidin-1-yl)methyl)thiazol-2-yl)acetamide]: under 0.001 µM; for `CC(=O)Nc1nnc(CN2CC[C@H](Cc3cc(C)nc(C)c3)C2)s1` [Example 3-47, (S)—N-(5-((3-((2,6-dimethylpyridin-4-yl)methyl)pyrrolidin-1-yl)methyl)-1,3,4-thiadiazol-2-yl)acetamide]: 0.13 µM.

`CC(=O)Nc1nc(F)c(CN2CCC[C@H](Cc3ncc(F)cn3)C2)s1` [Example 3-48, (R)-N-(4-fluoro-5-((3-((5-fluoropyrimidin-2-yl)methyl)piperidin-1-yl)methyl)thiazol-2-yl)acetamide]: the half-maximal inhibitory concentration (IC50) is under 0.001 µM. The same measure for `CCC(=O)Nc1nc(F)c(CN2CCC[C@H](Cc3cc(OC)ncn3)C2)s1` [Example 3-49, (R)-N-(4-fluoro-5-((3-((6-methoxypyrimidin-4-yl)methyl)piperidin-1-yl)methyl)thiazol-2-yl)propionamide]: 0.0022 µM. For the molecule `CC(=O)Nc1ncc(CN2CCCC(Cn3cc(F)cn3)C2)s1` (centres unmarked) [Example 4-1, N-(5-((3-((4-fluoro-1H-pyrazol-1-yl)methyl)piperidin-1-yl)methyl)thiazol-2-yl)acetamide], the IC50 was found to be 0.5 µM. To `CCc1cnn(CC2CCCN(Cc3cnc(NC(C)=O)s3)C2)c1` (centres unmarked) [Example 4-2, N-(5-((3-((4-ethyl-1H-pyrazol-1-yl)methyl)piperidin-1-yl)methyl)thiazol-2-yl)acetamide] belongs 0.97 µM. To `CC(=O)Nc1ncc(CN2CCCC(Cn3cc(C(F)(F)F)cn3)C2)s1` (centres unmarked) [Example 4-3, N-(5-((3-((4-(trifluoromethyl)-1H-pyrazol-1-yl)methyl)piperidin-1-yl)methyl)thiazol-2-yl)acetamide] belongs 0.96 µM; to `CC(=O)Nc1ncc(CN2CCCC(Cn3nc(C)c(C)c3C)C2)s1` (centres unmarked) [Example 4-4, N-(5-((3-((3,4,5-trimethyl-1H-pyrazol-1-yl)methyl)piperidin-1-yl)methyl)thiazol-2-yl)acetamide], 0.68 µM. To `CC(=O)Nc1ncc(CN2CCCC(Cn3cc(C4CCC4)cn3)C2)s1` (centres unmarked) [Example 4-5, N-(5-((3-((4-cyclobutyl-1H-pyrazol-1-yl)methyl)piperidin-1-yl)methyl)thiazol-2-yl)acetamide] belongs 0.66 µM. With `CC(=O)Nc1ncc(CN2CCCC(Cn3cc(C4CC4)cn3)C2)s1` (centres unmarked) [Example 4-6, N-(5-((3-((4-cyclopropyl-1H-pyrazol-1-yl)methyl)piperidin-1-yl)methyl)thiazol-2-yl)acetamide], the IC50 was 0.54 µM. Turning to `CC(=O)Nc1ncc(CN2CCCC(Cn3cc(C(C)C)cn3)C2)s1` (centres unmarked) [Example 4-7, N-(5-((3-((4-isopropyl-1H-pyrazol-1-yl)methyl)piperidin-1-yl)methyl)thiazol-2-yl)acetamide], the IC50 was found to be 0.38 µM. As to `COc1cnn(CC2CCCN(Cc3cnc(NC(C)=O)s3)C2)c1` (centres unmarked) [Example 4-8, N-(5-((3-((4-methoxy-1H-pyrazol-1-yl)methyl)piperidin-1-yl)methyl)thiazol-2-yl)acetamide], the IC50 was 0.36 µM. The same measure for `CC(=O)Nc1ncc(CN2CCCC(Cn3cc(Br)cn3)C2)s1` (centres unmarked) [Example 4-9, N-(5-((3-((4-bromo-1H-pyrazol-1-yl)methyl)piperidin-1-yl)methyl)thiazol-2-yl)acetamide]: 0.31 µM; for `CC(=O)Nc1ncc(CN2CCCC(Cn3cc(C)cn3)C2)s1` (centres unmarked) [Example 4-10, N-(5-((3-((4-methyl-1H-pyrazol-1-yl)methyl)piperidin-1-yl)methyl)thiazol-2-yl)acetamide]: 0.23 µM; for `CC(=O)Nc1ncc(CN2CCCC(Cn3cc(C(C)=O)cn3)C2)s1` (centres unmarked) [Example 4-11, N-(5-((3-((4-acetyl-1H-pyrazol-1-yl)methyl)piperidin-1-yl)methyl)thiazol-2-yl)acetamide]: 0.015 µM. To `CC(=O)Nc1ncc(CN2C[C@@H](Cc3noc(C)n3)C[C@@H]2C)s1` [Example 4-13, N-(5-(((2S,4R)-2-methyl-4-((5-methyl-1,2,4-oxadiazol-3-yl)methyl)pyrrolidin-1-yl)methyl)thiazol-2-yl)acetamide] belongs 0.0019 µM; to `CC(=O)Nc1ncc(CN2C[C@H](Cc3noc(C)n3)C[C@@H]2C)s1` [Example 4-14, N-(5-(((2S,4S)-2-methyl-4-((5-methyl-1,2,4-oxadiazol-3-yl)methyl)pyrrolidin-1-yl)methyl)thiazol-2-yl)acetamide], 0.0038 µM; to `CC(=O)Nc1nc(F)c(CN2C[C@H](Cc3noc(C)n3)CC[C@@H]2C)s1` [Example 4-15, N-(4-fluoro-5-(((2S,5S)-2-methyl-5-((5-methyl-1,2,4-oxadiazol-3-yl)methyl)piperidin-1-yl)methyl)thiazol-2-yl)acetamide], 0.0016 µM. The same measure for `CC(=O)Nc1nc(F)c(CN2C[C@@H](Cc3noc(C)n3)CC[C@@H]2C)s1` [Example 4-16, N-(4-fluoro-5-(((2S,5R)-2-methyl-5-((5-methyl-1,2,4-oxadiazol-3-yl)methyl)piperidin-1-yl)methyl)thiazol-2-yl)acetamide]: under 0.001 µM; for `CC(=O)Nc1ncc(CN2CC(Cc3noc(C)n3)CC[C@@H]2C)s1` (stereo partly drawn) [Example 4-17, N-(5-(((2S)-2-methyl-5-((5-methyl-1,2,4-oxadiazol-3-yl)methyl)piperidin-1-yl)methyl)thiazol-2-yl)acetamide]: under 0.001 µM.
